# Tests used:
# Assay in all cases: relative viability (nuclei count vs DMSO), 5 days (fraction); higher = more cells survive
# [1] = tested on: SW 1573
# In short: (§1)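 The day after seeding in 1536-well plates, lung cancer cell lines were treated by pin tool with a single drug, or with a fixed anchor-drug dose together with five library-drug doses (not always all listed) in √10 steps. After 5 days, a combined fix-and-stain solution (final 0.05% Triton X-100, 1% formaldehyde, 1 ug/ml Hoechst) was added. Nuclei counted on 4× images gave relative viability as treated counts over vehicle counts, reported as the median of duplicate plates.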
# [2] = tested on: ChaGo-K-1
# In short: as §1
# [3] = tested on: LOU-NH91
# In short: as §1
# [4] = tested on: NCI-H1666
# In short: as §1
# [5] = tested on: SK-LU-1
# In short: as §1
# [6] = tested on: NCI-H3122
# In short: as §1
# [7] = tested on: RERF-LC-KJ
# In short: as §1
# [8] = tested on: NCI-H1563
# In short: as §1
# [9] = tested on: NCI-H2126
# In short: as §1
# [10] = tested on: NCI-H23
# In short: as §1
# [11] = tested on: SW 900
# In short: as §1
# [12] = tested on: EMC-BAC-2
# In short: as §1
# [13] = tested on: NCI-H2405
# In short: as §1
# [14] = tested on: NCI-H322M
# In short: as §1
# [15] = tested on: HCC-827
# In short: as §1
# [16] = tested on: NCI-H1975
# In short: as §1
# [17] = tested on: LXF-289
# In short: as §1
# [18] = tested on: EPLC-272H
# In short: as §1
# [19] = tested on: LK-2
# In short: as §1
# [20] = tested on: NCI-H2085
# In short: as §1
# [21] = tested on: LU99A
# In short: as §1
# [22] = tested on: LCLC-103H
# In short: as §1
compound,measurement,setting,value
C=C1C(=O)O[C@@H](CCCCCCCC)[C@@H]1C(=O)O [C-75] + CCNC(=O)c1noc(-c2cc(C(C)C)c(O)cc2O)c1-c1ccc(CN2CCOCC2)cc1 [Luminespib] (partner 0.01 µM),relative viability,[1]; first compound 0.08 µM,0.168
same,relative viability,[1]; first compound 0.253 µM,0.254
same,relative viability,[1]; first compound 0.8 µM,0.207
same,relative viability,[1]; first compound 2.53 µM,0.216
same,relative viability,[1]; first compound 8 µM,0.157
same,relative viability,[2]; first compound 0.08 µM,0.524
same,relative viability,[2]; first compound 0.253 µM,0.587
same,relative viability,[2]; first compound 0.8 µM,0.598
same,relative viability,[2]; first compound 2.53 µM,0.638
same,relative viability,[2]; first compound 8 µM,0.478
same,relative viability,[3]; first compound 0.08 µM,0.307
same,relative viability,[3]; first compound 0.253 µM,0.346
same,relative viability,[3]; first compound 0.8 µM,0.344
same,relative viability,[3]; first compound 2.53 µM,0.29
same,relative viability,[3]; first compound 8 µM,0.32
same,relative viability,[4]; first compound 0.08 µM,0.961
same,relative viability,[4]; first compound 0.253 µM,1.04
same,relative viability,[4]; first compound 0.8 µM,1
same,relative viability,[4]; first compound 2.53 µM,0.934
same,relative viability,[4]; first compound 8 µM,0.827
same,relative viability,[5]; first compound 0.08 µM,0.202
same,relative viability,[5]; first compound 0.253 µM,0.191
same,relative viability,[5]; first compound 0.8 µM,0.184
same,relative viability,[5]; first compound 2.53 µM,0.193
same,relative viability,[5]; first compound 8 µM,0.161
same,relative viability,[6]; first compound 0.08 µM,0.0952
same,relative viability,[6]; first compound 0.253 µM,0.128
same,relative viability,[6]; first compound 0.8 µM,0.0733
same,relative viability,[6]; first compound 2.53 µM,0.0938
same,relative viability,[6]; first compound 8 µM,0.131
same,relative viability,[7]; first compound 0.08 µM,1.31
same,relative viability,[7]; first compound 0.253 µM,1.22
same,relative viability,[7]; first compound 0.8 µM,1.23
same,relative viability,[7]; first compound 2.53 µM,1.08
same,relative viability,[7]; first compound 8 µM,1.11
same,relative viability,[8]; first compound 0.08 µM,0.498
same,relative viability,[8]; first compound 0.253 µM,0.535
same,relative viability,[8]; first compound 0.8 µM,0.531
same,relative viability,[8]; first compound 2.53 µM,0.483
same,relative viability,[8]; first compound 8 µM,0.557
same,relative viability,[9]; first compound 0.08 µM,0.931
same,relative viability,[9]; first compound 0.253 µM,0.977
same,relative viability,[9]; first compound 0.8 µM,0.804
same,relative viability,[9]; first compound 2.53 µM,0.815
same,relative viability,[9]; first compound 8 µM,0.872
same,relative viability,[10]; first compound 0.08 µM,0.246
same,relative viability,[10]; first compound 0.253 µM,0.206
same,relative viability,[10]; first compound 0.8 µM,0.198
same,relative viability,[10]; first compound 2.53 µM,0.222
same,relative viability,[10]; first compound 8 µM,0.209
same,relative viability,[11]; first compound 0.08 µM,0.169
same,relative viability,[11]; first compound 0.253 µM,0.191
same,relative viability,[11]; first compound 0.8 µM,0.163
same,relative viability,[11]; first compound 2.53 µM,0.175
same,relative viability,[11]; first compound 8 µM,0.206
same,relative viability,[12]; first compound 0.08 µM,1.25
same,relative viability,[12]; first compound 0.253 µM,1.24
same,relative viability,[12]; first compound 0.8 µM,1.05
same,relative viability,[12]; first compound 2.53 µM,0.876
same,relative viability,[12]; first compound 8 µM,1.18
same,relative viability,[13]; first compound 0.08 µM,0.822
same,relative viability,[13]; first compound 0.253 µM,0.478
same,relative viability,[13]; first compound 0.8 µM,0.716
same,relative viability,[13]; first compound 2.53 µM,0.558
same,relative viability,[13]; first compound 8 µM,0.869
same,relative viability,[14]; first compound 0.08 µM,0.928
same,relative viability,[14]; first compound 0.253 µM,1.24
same,relative viability,[14]; first compound 0.8 µM,0.816
same,relative viability,[14]; first compound 2.53 µM,0.879
same,relative viability,[14]; first compound 8 µM,0.829
same,relative viability,[15]; first compound 0.08 µM,0.519
same,relative viability,[15]; first compound 0.253 µM,0.703
same,relative viability,[15]; first compound 0.8 µM,0.825
same,relative viability,[15]; first compound 2.53 µM,0.42
same,relative viability,[15]; first compound 8 µM,0.566
same,relative viability,[16]; first compound 0.08 µM,0.161
same,relative viability,[16]; first compound 0.253 µM,0.195
same,relative viability,[16]; first compound 0.8 µM,0.122
same,relative viability,[16]; first compound 2.53 µM,0.13
same,relative viability,[16]; first compound 8 µM,0.252
same,relative viability,[17]; first compound 0.08 µM,0.599
same,relative viability,[17]; first compound 0.253 µM,0.66
same,relative viability,[17]; first compound 0.8 µM,0.671
same,relative viability,[17]; first compound 2.53 µM,0.641
same,relative viability,[17]; first compound 8 µM,0.702
same,relative viability,[18]; first compound 0.08 µM,0.302
same,relative viability,[18]; first compound 0.253 µM,0.308
same,relative viability,[18]; first compound 0.8 µM,0.297
same,relative viability,[18]; first compound 2.53 µM,0.202
same,relative viability,[18]; first compound 8 µM,0.159
same,relative viability,[19]; first compound 0.08 µM,0.193
same,relative viability,[19]; first compound 0.253 µM,0.195
same,relative viability,[19]; first compound 0.8 µM,0.191
same,relative viability,[19]; first compound 2.53 µM,0.185
same,relative viability,[19]; first compound 8 µM,0.202
same,relative viability,[20]; first compound 0.08 µM,0.427
same,relative viability,[20]; first compound 0.253 µM,0.416
same,relative viability,[20]; first compound 0.8 µM,0.38
same,relative viability,[20]; first compound 2.53 µM,0.366
same,relative viability,[20]; first compound 8 µM,0.417
same,relative viability,[21]; first compound 0.08 µM,0.209
same,relative viability,[21]; first compound 0.253 µM,0.297
same,relative viability,[21]; first compound 0.8 µM,0.251
same,relative viability,[21]; first compound 2.53 µM,0.252
same,relative viability,[21]; first compound 8 µM,0.286
same,relative viability,[22]; first compound 0.08 µM,0.912
same,relative viability,[22]; first compound 0.253 µM,1.02
same,relative viability,[22]; first compound 0.8 µM,0.83
same,relative viability,[22]; first compound 2.53 µM,0.932
same,relative viability,[22]; first compound 8 µM,0.888

# Reference: the supplement of paper PMC10307832
